Measurements as given in patent US12509453B2, “BRM/BRG1 inhibitors and uses thereof” (Foghorn Therapeutics Inc., priority 2019, dated 2025).

Experiments:
BRG-1 = target: T1, BRG-1 (Homo sapiens, UniProt P51532); assay: ATPase catalytic activity assay (ADP-Glo), BRG-1; assay type: biochemical; conditions: 30 nM BRG-1, 400 μM ATP; for IC50: 20 nM salmon sperm DNA, read-out: BRG1 IP50 (μM)*; for Emax: read-out: BRG1 Max % Inhibition
T1 construct: made in house; host or cells: High Five insect cells
Procedure: (§1) The ATPase catalytic activity of BRM or BRG-1 was measured by the in vitro biochemical assay using ADP-Glo™ (Promega, V9102). The ADP-Glo™ kinase assay is performed in two steps once the reaction is complete. The first step is to deplete any unconsumed ATP in the reaction. The second step is to convert the reaction product ADP to ATP, which will be utilized by the luciferase to generate luminesce and be detected by a luminescence reader, such as Envision.
(§2) The assay reaction mixture (10 μL) contains 30 nM of BRM or BRG-1, 20 nM salmon sperm DNA (from Invitrogen, UltraPure™ Salmon Sperm DNA Solution, cat #15632011), and 400 μM of ATP in the ATPase assay buffer, which comprises of 20 mM Tris, pH 8, 20 mM MgCl2, 50 mM NaCl, 0.1% Tween-20, and 1 mM fresh DTT (Pierce™ DTT (Dithiothreitol), cat #20290). The reaction is initiated by the addition of the 2.5 μL ATPase solution to 2.5 μL ATP/DNA solution on low volume white Proxiplate-384 plus plate (PerkinElmer,cat #6008280) and incubates at room temperature for 1 hour. Then following addition of 5 μL of ADP-Glo™ Reagent provided in the kit, the reaction incubates at room temperature for 40 minutes. Then 10 μL of Kinase Detection Reagent provided in the kit is added to convert ADP to ATP, and the reaction incubates at room temperature for 60 minutes. Finally, luminescence measurement is collected with a plate-reading luminometer, such as Envision.
as §1, with “The” for “The ATPase catalytic activity of BRM or BRG-1 was measured by the in vitro biochemical assay using ADP-Glo™ (Promega, V9102). The”
as §2, with “BRG1,” for “BRG-1,”

BRM = target: T2, BRM (Homo sapiens, UniProt P51531); assay: ATPase catalytic activity assay (ADP-Glo), BRM; assay type: biochemical; conditions: 30 nM BRM, 400 μM ATP; for IC50: 20 nM salmon sperm DNA, read-out: BRM IP50 (μM)*
T2 construct: made in house; host or cells: High Five insect cells
Procedure: as §1, §2
as §1, with “The” for “The ATPase catalytic activity of BRM or BRG-1 was measured by the in vitro biochemical assay using ADP-Glo™ (Promega, V9102). The”
as §2, with “BRG1,” for “BRG-1,”

T2 sequence (P51531 whole entry): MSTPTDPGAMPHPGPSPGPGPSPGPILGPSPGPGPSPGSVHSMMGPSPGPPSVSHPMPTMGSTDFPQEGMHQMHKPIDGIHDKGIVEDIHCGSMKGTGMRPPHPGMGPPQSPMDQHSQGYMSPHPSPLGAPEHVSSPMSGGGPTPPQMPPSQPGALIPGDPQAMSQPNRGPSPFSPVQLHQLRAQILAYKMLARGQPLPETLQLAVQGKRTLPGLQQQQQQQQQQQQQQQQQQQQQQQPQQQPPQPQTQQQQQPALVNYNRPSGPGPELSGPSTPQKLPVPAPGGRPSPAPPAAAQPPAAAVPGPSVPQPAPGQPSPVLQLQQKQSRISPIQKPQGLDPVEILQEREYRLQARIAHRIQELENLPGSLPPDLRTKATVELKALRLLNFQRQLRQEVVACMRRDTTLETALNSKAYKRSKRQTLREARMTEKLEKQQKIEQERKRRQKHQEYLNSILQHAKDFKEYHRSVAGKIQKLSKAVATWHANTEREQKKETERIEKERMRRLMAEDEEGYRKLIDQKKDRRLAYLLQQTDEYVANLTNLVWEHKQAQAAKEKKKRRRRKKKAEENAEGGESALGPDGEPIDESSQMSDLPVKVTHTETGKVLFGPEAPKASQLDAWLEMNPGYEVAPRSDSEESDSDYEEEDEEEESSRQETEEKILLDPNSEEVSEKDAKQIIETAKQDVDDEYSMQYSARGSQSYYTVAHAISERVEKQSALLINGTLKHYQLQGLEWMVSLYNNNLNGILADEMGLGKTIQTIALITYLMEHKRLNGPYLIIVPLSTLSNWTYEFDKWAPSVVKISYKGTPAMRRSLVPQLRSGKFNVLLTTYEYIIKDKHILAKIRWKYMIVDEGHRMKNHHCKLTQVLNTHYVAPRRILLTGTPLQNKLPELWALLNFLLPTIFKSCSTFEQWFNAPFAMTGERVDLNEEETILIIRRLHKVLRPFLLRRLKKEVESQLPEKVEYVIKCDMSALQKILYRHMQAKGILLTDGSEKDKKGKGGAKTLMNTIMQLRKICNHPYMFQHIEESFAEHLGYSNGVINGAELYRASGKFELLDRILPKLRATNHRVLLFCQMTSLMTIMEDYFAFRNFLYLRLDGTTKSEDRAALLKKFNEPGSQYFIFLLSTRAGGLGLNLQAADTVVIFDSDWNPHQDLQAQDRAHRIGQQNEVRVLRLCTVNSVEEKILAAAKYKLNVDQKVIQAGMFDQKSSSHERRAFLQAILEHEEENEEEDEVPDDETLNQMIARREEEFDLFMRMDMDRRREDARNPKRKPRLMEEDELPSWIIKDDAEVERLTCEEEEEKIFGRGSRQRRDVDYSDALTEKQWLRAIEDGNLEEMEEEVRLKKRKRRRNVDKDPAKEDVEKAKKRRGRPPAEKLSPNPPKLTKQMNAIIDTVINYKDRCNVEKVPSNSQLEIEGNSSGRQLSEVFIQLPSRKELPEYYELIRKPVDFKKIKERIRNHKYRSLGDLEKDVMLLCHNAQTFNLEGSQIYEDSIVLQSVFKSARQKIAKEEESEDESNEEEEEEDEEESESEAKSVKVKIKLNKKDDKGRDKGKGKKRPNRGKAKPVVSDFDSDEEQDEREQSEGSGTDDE
T1 sequence (P51532 whole entry): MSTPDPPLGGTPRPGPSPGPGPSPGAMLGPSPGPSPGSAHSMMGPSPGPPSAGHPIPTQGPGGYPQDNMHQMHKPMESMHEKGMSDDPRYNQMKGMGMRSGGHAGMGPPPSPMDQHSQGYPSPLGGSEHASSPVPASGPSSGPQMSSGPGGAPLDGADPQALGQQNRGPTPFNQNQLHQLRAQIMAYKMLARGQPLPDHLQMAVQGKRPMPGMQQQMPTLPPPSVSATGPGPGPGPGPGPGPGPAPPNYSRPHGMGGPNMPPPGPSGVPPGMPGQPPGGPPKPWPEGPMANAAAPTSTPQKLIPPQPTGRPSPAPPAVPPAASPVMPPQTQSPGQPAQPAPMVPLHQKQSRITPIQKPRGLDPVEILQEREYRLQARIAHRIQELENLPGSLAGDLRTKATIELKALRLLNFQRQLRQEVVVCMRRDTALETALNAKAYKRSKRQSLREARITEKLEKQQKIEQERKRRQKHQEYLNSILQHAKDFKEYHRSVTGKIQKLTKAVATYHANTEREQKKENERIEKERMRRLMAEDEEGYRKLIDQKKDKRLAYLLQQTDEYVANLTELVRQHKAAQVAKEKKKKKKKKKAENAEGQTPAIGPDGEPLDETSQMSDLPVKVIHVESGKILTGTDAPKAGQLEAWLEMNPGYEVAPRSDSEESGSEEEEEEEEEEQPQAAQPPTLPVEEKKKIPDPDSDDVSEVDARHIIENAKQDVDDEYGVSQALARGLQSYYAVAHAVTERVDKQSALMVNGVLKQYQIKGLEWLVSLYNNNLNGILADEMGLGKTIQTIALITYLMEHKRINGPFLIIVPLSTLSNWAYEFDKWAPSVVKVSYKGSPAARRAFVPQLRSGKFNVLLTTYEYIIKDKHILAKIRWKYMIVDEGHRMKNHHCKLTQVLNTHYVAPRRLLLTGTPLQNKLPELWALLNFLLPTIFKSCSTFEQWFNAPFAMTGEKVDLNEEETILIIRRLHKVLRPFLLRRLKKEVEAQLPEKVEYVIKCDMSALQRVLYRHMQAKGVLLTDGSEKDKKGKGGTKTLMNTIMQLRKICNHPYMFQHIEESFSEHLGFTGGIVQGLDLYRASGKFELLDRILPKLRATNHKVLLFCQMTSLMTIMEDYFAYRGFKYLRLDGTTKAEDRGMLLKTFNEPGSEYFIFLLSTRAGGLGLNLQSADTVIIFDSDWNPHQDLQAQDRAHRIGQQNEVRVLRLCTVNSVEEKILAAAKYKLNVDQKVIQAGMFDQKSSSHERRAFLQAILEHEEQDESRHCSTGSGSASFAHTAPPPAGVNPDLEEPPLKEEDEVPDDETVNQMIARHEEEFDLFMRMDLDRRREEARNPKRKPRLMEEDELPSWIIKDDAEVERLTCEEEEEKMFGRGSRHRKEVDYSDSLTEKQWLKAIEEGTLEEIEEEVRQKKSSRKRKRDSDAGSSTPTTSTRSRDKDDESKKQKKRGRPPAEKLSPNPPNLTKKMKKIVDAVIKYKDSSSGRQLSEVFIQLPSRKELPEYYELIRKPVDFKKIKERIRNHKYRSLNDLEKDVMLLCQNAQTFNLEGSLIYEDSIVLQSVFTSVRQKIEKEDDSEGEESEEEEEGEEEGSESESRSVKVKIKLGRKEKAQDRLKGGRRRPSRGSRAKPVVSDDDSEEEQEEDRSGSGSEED

CS(=O)(=O)n1cc(C(=O)NCC(=O)Nc2nc(-c3cccc(-c4ccncc4)c3)cs2)c2ccccc21 [Compound 1, 1-(methylsulfonyl)-N-(2-oxo-2-((4-(3-(pyridin-4-yl)phenyl)thiazol-2-yl)amino)ethyl)-1H-indole-3-carboxamide]
IC50 (BRG-1): > 5 µM
Emax (BRG-1): < 30%
BRM Max % Inhibition (BRM): >70%
IC50 (BRM): 0.1 to 1 µM

CS(=O)(=O)n1cc(C(=O)NCC(=O)Nc2nc(-c3cccc(-c4ccncc4)c3)cs2)c2ccncc21 [Compound 2, 1-(methylsulfonyl)-N-(2-oxo-2-((4-(3-(pyridin-4-yl)phenyl)thiazol-2-yl)amino)ethyl)-1H-pyrrolo[2,3-c]pyridine-3-carboxamide]
IC50 (BRG-1): 1 to 5 µM
Emax (BRG-1): > 70%
BRM Max % Inhibition (BRM): >80%
IC50 (BRM): 0.1 to 1 µM

CS(=O)(=O)n1cc(C(=O)NCC(=O)Nc2nc(-c3cccc(-c4ccncc4)c3)cs2)c2ncccc21 [Compound 3, 1-(methylsulfonyl)-N-(2-oxo-2-((4-(3-(pyridin-4-yl)phenyl)thiazol-2-yl)amino)ethyl)-1H-pyrrolo[3,2-b]pyridine-3-carboxamide]
IC50 (BRG-1): > 5 µM
Emax (BRG-1): > 40%
BRM Max % Inhibition (BRM): >40%
IC50 (BRM): > 5 µM

CC(C)S(=O)(=O)n1cc(C(=O)NCC(=O)Nc2nc(-c3cccc(-c4ccncc4)c3)cs2)c2ccccc21 [Compound 4, 1-(isopropylsulfonyl)-N-(2-oxo-2-((4-(3-(pyridin-4-yl)phenyl)thiazol-2-yl)amino)ethyl)-1H-indole-3-carboxamide]
IC50 (BRG-1): > 5 µM
BRM Max % Inhibition (BRM): >60%
IC50 (BRM): 0.1 to 1 µM

CS(=O)(=O)n1cc(C(=O)NCC(=O)Nc2nc(-c3cccc(-c4ccncc4)c3)cs2)c2c1CCCC2 [Compound 5, 1-(methylsulfonyl)-N-(2-oxo-2-((4-(3-(pyridin-4-yl)phenyl)thiazol-2-yl)amino)ethyl)-4,5,6,7-tetrahydro-1 H-indole-3-carboxamide]
IC50 (BRG-1): > 5 µM
Emax (BRG-1): < 30%
BRM Max % Inhibition (BRM): >60%
IC50 (BRM): < 0.1 µM

Cc1cc(C(=O)NCC(=O)Nc2nc(-c3cccc(-c4ccn(C)n4)c3)cs2)cn1S(=O)(=O)C(C)C [Compound 6, 1-(isopropylsulfonyl)-5-methyl-N-(2-((4-(3-(1-methyl-1H-pyrazol-3-yl)phenyl)thiazol-2-yl)amino)-2-oxoethyl)-1H-pyrrole-3-carboxamide]
IC50 (BRG-1): 1 to 5 µM
Emax (BRG-1): > 50%
BRM Max % Inhibition (BRM): >90%
IC50 (BRM): 0.1 to 1 µM

Cc1cc(-c2cccc(-c3csc(NC(=O)CNC(=O)c4cc(C)n(S(=O)(=O)C(C)C)c4)n3)c2)cc(C)n1 [Compound 7, N-(2-((4-(3-(2,6-dimethylpyridin-4-yl)phenyl)thiazol-2-yl)amino)-2-oxoethyl)-1-(isopropylsulfonyl)-5-methyl-1H-pyrrole-3-carboxamide]
IC50 (BRG-1): 0.1 to 1 µM
Emax (BRG-1): > 95%
BRM Max % Inhibition (BRM): >95%
IC50 (BRM): < 0.1 µM

Cc1cc(C(=O)NCC(=O)Nc2nc(-c3cccc(N4C[C@@H](C)O[C@@H](C)C4)c3)cs2)cn1S(=O)(=O)C(C)C [Compound 8, N-(2-((4-(3-((2S,6R)-2,6-dimethylmorpholino)phenyl)thiazol-2-yl)amino)-2-oxoethyl)-1-(isopropylsulfonyl)-5-methyl-1H-pyrrole-3-carboxamide]
IC50 (BRG-1): 0.1 to 1 µM
Emax (BRG-1): > 70%
BRM Max % Inhibition (BRM): >95%
IC50 (BRM): 0.1 to 1 µM

Cc1cn(S(C)(=O)=O)cc1C(=O)NCC(=O)Nc1nc(-c2cccc(-c3ccncc3)c2)cs1 [Compound 9, 4-methyl-1-(methylsulfonyl)-N-(2-oxo-2-((4-(3-(pyridin-4-yl)phenyl)thiazol-2-yl)amino)ethyl)-1H-pyrrole-3-carboxamide]
IC50 (BRG-1): < 0.1 µM
Emax (BRG-1): > 60%
BRM Max % Inhibition (BRM): >80%
IC50 (BRM): < 0.1 µM

Cc1c(C(=O)NCC(=O)Nc2nc(-c3cccc(-c4ccncc4)c3)cs2)cn(S(=O)(=O)C(C)C)c1C [Compound 10, 1-(isopropylsulfonyl)-4,5-dimethyl-N-(2-oxo-2-((4-(3-(pyridin-4-yl)phenyl)thiazol-2-yl)amino)ethyl)-1H-pyrrole-3-carboxamide]
IC50 (BRG-1): > 5 µM
Emax (BRG-1): < 30%
BRM Max % Inhibition (BRM): >70%
IC50 (BRM): 0.1 to 1 µM

Cc1c(C(=O)NCC(=O)Nc2nc(-c3cccc(-c4ccncc4)c3)cs2)cn(S(C)(=O)=O)c1C [Compound 11, 4,5-dimethyl-1-(methylsulfonyl)-N-(2-oxo-2-((4-(3-(pyridin-4-yl)phenyl)thiazol-2-yl)amino)ethyl)-1H-pyrrole-3-carboxamide]
IC50 (BRG-1): < 0.1 µM
Emax (BRG-1): > 80%
BRM Max % Inhibition (BRM): >95%
IC50 (BRM): < 0.1 µM

Cc1cc(-c2cccc(-c3csc(NC(=O)CNC(=O)c4cn(S(=O)(=O)C(C)C)c(C)c4C)n3)c2)cc(C)n1 [Compound 12, N-(2-((4-(3-(2,6-dimethylpyridin-4-yl)phenyl)thiazol-2-yl)amino)-2-oxoethyl)-1-(isopropylsulfonyl)-4,5-dimethyl-1H-pyrrole-3-carboxamide]
IC50 (BRG-1): 0.1 to 1 µM
Emax (BRG-1): > 80%
BRM Max % Inhibition (BRM): >95%
IC50 (BRM): < 0.1 µM

Cc1cc(-c2cccc(-c3csc(NC(=O)CNC(=O)c4cn(S(=O)(=O)C(C)C)c(C)c4C)n3)c2)ccn1 [Compound 13, 1-(isopropylsulfonyl)-4,5-dimethyl-N-(2-((4-(3-(2-methylpyridin-4-yl)phenyl)thiazol-2-yl)amino)-2-oxoethyl)-1H-pyrrole-3-carboxamide]
IC50 (BRG-1): 1 to 5 µM
Emax (BRG-1): > 80%
BRM Max % Inhibition (BRM): >95%
IC50 (BRM): 0.1 to 1 µM

Cc1cc(-c2cccc(-c3csc(NC(=O)CNC(=O)c4cn(S(=O)(=O)C(C)C)c(C)c4C)n3)c2)nc(C)n1 [Compound 14]
IC50 (BRG-1): 0.1 to 1 µM
Emax (BRG-1): > 90%
BRM Max % Inhibition (BRM): >95%
IC50 (BRM): < 0.1 µM

Cc1c(C(=O)NCC(=O)Nc2nc(-c3cccc(N4C[C@@H](C)O[C@@H](C)C4)c3)cs2)cn(S(C)(=O)=O)c1C [Compound 15]
IC50 (BRG-1): 0.1 to 1 µM
Emax (BRG-1): > 90%
BRM Max % Inhibition (BRM): >95%
IC50 (BRM): < 0.1 µM

Cc1nccc(-c2cccc(-c3csc(NC(=O)CNC(=O)c4cc(C)n(S(=O)(=O)C(C)C)c4)n3)c2)n1 [Compound 16]
IC50 (BRG-1): < 0.1 µM
Emax (BRG-1): > 95%
BRM Max % Inhibition (BRM): >95%
IC50 (BRM): < 0.1 µM

Cc1nccc(-c2cccc(-c3csc(NC(=O)CNC(=O)c4cn(S(=O)(=O)C(C)C)c(C)c4C)n3)c2)n1 [Compound 17]
IC50 (BRG-1): 0.1 to 1 µM
Emax (BRG-1): > 80%
BRM Max % Inhibition (BRM): >95%
IC50 (BRM): < 0.1 µM

Cc1nccc(-c2cccc(-c3csc(NC(=O)CNC(=O)c4cn(S(C)(=O)=O)c5c4CCCC5)n3)n2)n1 [Compound 18, N-(2-((4-(6-(2-methylpyrimidin-4-yl)pyridin-2-yl)thiazol-2-yl)amino)-2-oxoethyl)-1-(methylsulfonyl)-4,5,6,7-tetrahydro-1H-indole-3-carboxamide]
IC50 (BRG-1): > 5 µM
Emax (BRG-1): < 30%
BRM Max % Inhibition (BRM): >70%
IC50 (BRM): 0.1 to 1 µM

Cc1cc(-c2cccc(-c3csc(NC(=O)CNC(=O)c4cc(C5CC5)n(S(C)(=O)=O)c4)n3)c2)cc(C)n1 [Compound 19, 5-cyclopropyl-N-(2-((4-(3-(2,6-dimethylpyridin-4-yl)phenyl)thiazol-2-yl)amino)-2-oxoethyl)-1-(methylsulfonyl)-1H-pyrrole-3-carboxamide]
IC50 (BRG-1): 0.1 to 1 µM
Emax (BRG-1): > 80%
BRM Max % Inhibition (BRM): >95%
IC50 (BRM): 0.1 to 1 µM

Cc1cc(-c2cccc(-c3csc(NC(=O)CNC(=O)c4cn(S(=O)(=O)C(C)C)c5c4CCCC5)n3)c2)cc(C)n1 [Compound 20, N-(2-((4-(3-(2,6-dimethylpyridin-4-yl)phenyl)thiazol-2-yl)amino)-2-oxoethyl)-1-(isopropylsulfonyl)-4,5,6,7-tetrahydro-1H-indole-3-carboxamide]
IC50 (BRG-1): > 5 µM
Emax (BRG-1): < 30%
BRM Max % Inhibition (BRM): >95%
IC50 (BRM): 0.1 to 1 µM
